melting point: 148 to 151 °C
Structure (SMILES): Cc1nc(C(F)(F)F)ccc1C(=O)NCC1(CC2CC2)CCC(S(=O)(=O)CC2CC2)CC1 (stereo not shown) [Example 3, N-(4-Cyclopropylmethanesulfonyl-1-cyclopropylmethyl-cyclohexylmethyl)-2-methyl-6-trifluoromethyl-nicotinamide]
